Here are results for one compound from US20050215635A1, “Diarylheptanoid compounds and uses thereof” (priority 2004, published 2005).

“Also recorded” adds a separate entry of the source.

Experiment [1] concerns Du-145 prostate tumor cells. The experiment is described as follows: MTT-microculture tetrazolium cell viability assay / induction of apoptosis in Du-145. It is filed as cell-based. On the procedure:
The rhizomes of Alpinia officinarum were purchased from Nuherbs Co. (Oakland, Calif.). Du-145 prostate tumor cells were obtained from the American Type Culture Collection (ATCC). Cells were maintained at 37° C. in an atmosphere of 5% CO2 and grown in Roswell Park Memorial Institute (RPMI) media 1640 (GIBCO/BRL) with 10% fetal bovine serum and with 5% penicillin and streptomycin.
The powdered roots of Alpinia officinarum were extracted with methanol and concentrated under vacuum using rotary evaporation. The dried residue was then partitioned with hexanes, ethyl acetate and 1-butanol successively. The three extracts were subjected to bioassays.
The dried ethyl acetate extract was then chromatographed on a normal phase silica gel column (2.5×30 cm) to perform bioassay-directed fractionation. The extract was first dissolved in methanol and loaded onto the column packing material. The prepared extract was then placed on top of the column and elution was performed using a solvent mixture of chloroform/methanol with an increasing amount of methanol (30:1, 20:1, 10:1, 5:1, 0:100; each 1000 mL). Successive fractions were collected and tested for biological activity. […] This fraction was then rechromatographed on a semipreparative Zorbax Rx-C18 reversed phase HPLC column (9.4 mm×240 mm, 5 μm) purchased from MacMod Analytical (Chadds Ford, Pa.). Compounds were eluted by an isocratic solvent system: 55% A, water with 0.05% formic acid (FA); 45% B, ACN (v/v) at a flow rate of 4 mL/min. The wavelength monitored was 205 nm. Successive fractions (1-3) were collected and sent for biological testing again.
Cellular growth in the presence or absence of experimental agents was determined using the modified method as previously described MTT-microculture tetrazolium assay (World Health Organization (ED.), Medicinal Plants in China, WHO Regional Publications, 1989, 21). Briefly, rapidly growing cells were harvested, counted, and inoculated at the appropriate concentrations (100 μL volume) into 96-well micro-titer plates using a multichannel pipet. After 24 hours, AO-1 to AO-5 were applied in different concentrations to triplicate culture wells, and cultures were incubated for 72 hours at 37° C. MTT ( Sigma, St. Louis, Mo.) was prepared at 2 mg/ml in Phosphate buffered saline (PBS) and 50 μL were added to microculture wells. After 4 hour incubation at 37° C., […] were removed from each well, and 150 μL of 100% DMSO were added to solubilize the MTT-formazan product. After thorough mixing with a mechanical plate mixer, absorbence was measured at 570 nm using a Dynatech microplate reader. […] This assay is based on the reduction of MTT tetrazolium salt to a formazan product by the metabolic activity of live cells and which was measured in a multiwell scanning spectrophotometer. Cell line growth and growth inhibition were expressed in terms of mean absorbance units and following the substraction of mean background absorbance.

A further experiment deals with COX-2 protein expression. In words: Western blotting of COX-2 protein expression in RAW 264.7 cells. The class given is cell-based, mouse. To be noted: HMP 12.5 and 25 μM + LPS (0.5 μg/ml), RAW 264.7, 18 hrs. On the procedure:
FIG. 3. Inhibition of LPS induced iNOS and COX-2 protein expression by HMP. RAW 264.7 cells were treated with various concentrations of HMP and/or LPS (0.5 μg/ml) for 18 h. Total-cell lysate (40 μg) was resolved in 8-10% SDS-PAGE then transferred to PVDF membrane and detected with specific antibodies as described in Section 6. This experiment was repeated 4 times with similar observations. Lane-1, Control (without any treatment); 2, LPS (0.5 μg/ml); 3, LPS and HMP 25 μM; 4, LPS and HMP-12.5 μM.
(§1) At indicated time points, cells were rapidly washed with ice-cold PBS and solubilized in cold lysis buffer containing 10 mM Tris-base, 5 mM EDTA, 50 mM NaCl, 1% Triton X-100, 5 mM phenylmethylsulfonyl fluoride (PMSF), 2 mM sodium orthovanadate, 10 μg/ml leupeptin, 25 μg/ml aprotinin, 1 mM sodium pyrophosphate, and 20% glycerol. […]
(§2) Equal amount of protein (40 μg) from each sample was loaded on SDS-polyacrylamide electrophoresis gel (8 and 10% separating gels for iNOS and p42/44^MAPK, respectively) and resolved for 1.5 h at 120 V in buffer containing 95 mM Tris-HCl, 960 mM glycine, and 0.5% SDS. […] Specific bands were detected by enhanced chemiluminescence's detection system (Amersham-Pharmacia biotech, NJ, USA) and the membrane was exposed to X-ray film. […]

The next experiment deals with p38 MAPK phosphorylation. In words: Western blotting of LPS induced phosphorylation of p38 MAPK in RAW 264.7 cells. The class given is cell-based, mouse. The note with it: HMP 25 μM + LPS (0.5 μg/ml), RAW 264.7, 30 min and 60 min. On the procedure:
FIG. 5A and 5B. Effect of HMP on LPS induced MAPKs activation. FIG. 5A, Total protein lysates of RAW 264.7 were prepared after treatment with HMP and/or LPS for indicated times and 40 μg of protein lysates were resolved and probed for phosphorylated (pp44/42 and pp38) and basal p44/42 and p38, using specific monoclonal antibodies as described in material and methods. FIG. 5B, Integrated density of phosphorylated p44/42 (pp44/42) as measured by Scion software. This experiment was repeated 4 times with similar results.
as §1, §2

On to `COc1cc(CC/C=C/C(=O)CCc2ccccc2)ccc1O` [AO-4, 7-(4″-hydroxy-3″-methoxyphenyl)-1-phenyl-hept-4-en-3-one], for which, in experiment [1] (Homo sapiens, Du-145 prostate tumor cells, MTT, 72 hours incubation, drug concentration giving 50% inhibition of growth, read-out: IC50 (μM), Effects of Diarylheptanoids on Inducing Apoptosis in DU-145 Cancer Cell Line), the half-inhibitory concentration (IC50) was 12.5 µM. In addition, in experiment [1] (bioassay-directed fractionation of Alpinia officinarum), the “activity in bioassay: inducing apoptosis in Du-145 cancer cell line (in words)” value was “some activity; also recorded: most potent”. Besides, in the experiment with COX-2 protein expression, the “LPS induced COX-2 protein expression (Western blot, in words)” value is listed as “markedly inhibited”. The “LPS induced phosphorylation of p38 (in words)” value in the experiment with p38 MAPK phosphorylation was “no effect”.
